Laboratory results: ChEMBL document CHEMBL1159357, “Labdane and kaurane diterpenoids from Plectranthus fruticosus” (2003)
Converted amounts (≈) assume the structure as drawn. The source made the active and inactive calls. The rule behind the calls is not given here.

test system: Staphylococcus aureus; experiment: Antimicrobial activity against Staphylococcus aureus; type: functional

Structure (SMILES) | Activity | MIC [µg/mL]
C=C1C[C@@]23CC[C@H]4[C@@](C)(CCC[C@@]4(C)C(=O)OC)[C@@H]2C[C@H](OC(C)=O)[C@H]1C3 | inactive | 
COC(=O)[C@]1(C)CCC[C@@]2(C)[C@@H]3C[C@H](OC(C)=O)[C@H]4C[C@]3(C=C4C)CC[C@@H]21 | inactive | 
C[C@@]1(CO)CCC[C@]2(C)[C@@H]1CC[C@@]13C[C@H](CC[C@@H]21)[C@]1(C)O[C@H]31 | inactive | 
C=C/C(C)=C/C[C@H]1C(=C)CC[C@H]2C(C)(C)[C@@H](OC(C)=O)[C@H](O)C[C@]12C | inactive | 
C=C/C(C)=C\C[C@@H]1C(=C)CC[C@@H]2C(C)(C)C[C@@H](OC(C)=O)C[C@@]12C | inactive | 
COC(=O)[C@]1(C)CCC[C@@]2(C)[C@@H]3CC[C@H]4C[C@@]3(CC[C@@H]21)[C@H]1O[C@@]41C | inactive | 
C[C@@]12CCC[C@@](C)(C(=O)O)[C@H]1CC[C@@]13C[C@H](CC[C@@H]21)[C@]1(C)O[C@H]31 |  | 31.2 (≈ 98.1 µM)
